{"source": "patent US20090275515A1", "about": "“2-HYDROXY-2-PHENYLTHIOPHENYLPROPIONAMIDES AS ANDROGEN RECEPTOR MODULATORS” (priority 2006, published 2009)", "assay": "biochemical assays (not further specified)", "conditions": "compound coupled from the second-peak acid 5-4 (RT=21 min)"}
{"smiles": "O=C(NCc1cc(C(F)(F)F)ccn1)[C@](O)(c1ccccc1)C(F)(F)C(F)(F)F", "note": "[Example 7, (2R)-3,3,4,4,4-Pentafluoro-2-hydroxy-2-phenyl-N-(4-trifluoromethyl-pyridin-2-ylmethyl)-butyramide]", "values": [{"measurement": "activity in the biochemical assays", "result": "active"}]}
